Laboratory results reported in ChEMBL document CHEMBL3112578, “Synthesis and haemolytic activity of novel salts made of nicotine alkaloids and bile acids” (Bioorg Med Chem Lett, 2014).
In brackets after ≈: the same amount, converted by molar mass.

Assays:
[1] = Hemolytic activity in human erythrocytes assessed as release of hemoglobin after 60 mins; assay type: ADME, cell-based, Erythrocyte; conditions: 1 h; for IC50: Homo sapiens, Erythrocyte; for Activity: human, erythrocyte
[2] = Hemolytic activity in human erythrocytes assessed as release of hemoglobin at 0.19 mg/mL after 60 mins relative to control; assay type: ADME, cell-based, Erythrocyte; conditions: read-out: Activity
[3] = Hemolytic activity in human erythrocytes assessed as release of hemoglobin at 0.67 mg/mL after 60 mins relative to control; assay type: ADME, cell-based, Erythrocyte; conditions: read-out: Activity
[4] = Hemolytic activity in human erythrocytes assessed as increase in cell permeability up to 1 mg/mL after 60 mins; assay type: ADME, cell-based; conditions: erythrocyte, 1 h
[5] = Hemolytic activity in human erythrocytes assessed as induction of spheroechinocytic shape alteration at hemolysis start concentration after 60 mins by SEM analysis; assay type: cell-based; conditions: erythrocyte, 1 h
[6] = Hemolytic activity in human erythrocytes assessed as induction of echinocytic shape alteration at hemolysis start concentration after 60 mins by SEM analysis; assay type: cell-based; conditions: erythrocyte, 1 h
[7] = Hemolytic activity in human erythrocytes assessed as release of hemoglobin at 0.00001 mg/mL after 60 mins relative to control; assay type: ADME, cell-based, Erythrocyte; conditions: read-out: Activity
[8] = Hemolytic activity in human erythrocytes assessed as induction of stomatocytic shape alteration at hemolysis start concentration after 60 mins by SEM analysis; assay type: cell-based; conditions: erythrocyte, 1 h
[9] = Hemolytic activity in human erythrocytes assessed as release of hemoglobin at 0.63 mg/mL after 60 mins relative to control; assay type: ADME, cell-based, Erythrocyte; conditions: read-out: Activity
[10] = Hemolytic activity in human erythrocytes assessed as release of hemoglobin at 0.006 mg/mL after 60 mins relative to control; assay type: ADME, cell-based, Erythrocyte; conditions: read-out: Activity
[11] = Hemolytic activity in human erythrocytes assessed as release of hemoglobin at 0.007 mg/mL after 60 mins relative to control
[12] = Hemolytic activity in human erythrocytes assessed as discocytic shape up to 1 mg/mL after 60 mins by SEM analysis; assay type: ADME, cell-based; conditions: erythrocyte, 1 h
[13] = Hemolytic activity in human erythrocytes assessed as release of hemoglobin at 0.75 mg/mL after 60 mins relative to control; assay type: ADME, cell-based, Erythrocyte; conditions: read-out: Activity
[14] = Hemolytic activity in human erythrocytes assessed as release of hemoglobin at 0.0001 mg/mL after 60 mins relative to control; assay type: ADME, cell-based, Erythrocyte; conditions: read-out: Activity
[15] = Hemolytic activity in human erythrocytes assessed as release of hemoglobin at 0.17 mg/mL after 60 mins relative to control; assay type: ADME, cell-based, Erythrocyte; conditions: read-out: Activity

Structure (SMILES)	IC50 [1] [µg/mL]	Activity [1]	Activity [4]	Activity [8]	other results
CN1C(=[Se])CC[C@H]1c1cccnc1.C[C@H](CCC(=O)O)[C@H]1CC[C@H]2[C@@H]3CC[C@@H]4C[C@H](O)CC[C@]4(C)[C@H]3C[C@H](O)[C@]12C	610	Dose-dependent effect			hemolysis at 1 h, 0.19 mg/mL [2]: 5%
CN1C(=S)CC[C@H]1c1cccnc1.C[C@H](CCC(=O)O)[C@H]1CC[C@H]2[C@@H]3CC[C@@H]4C[C@H](O)CC[C@]4(C)[C@H]3C[C@H](O)[C@]12C		Dose-dependent effect	Non-toxic		hemolysis at 1 h, 0.67 mg/mL [3]: 5%
CN1C(=S)CC[C@H]1c1cccnc1.C[C@H](CCC(=O)O)[C@H]1CC[C@H]2[C@@H]3CC[C@@H]4C[C@H](O)CC[C@]4(C)[C@H]3CC[C@]12C	40	Dose-dependent effect			Activity [5]: Toxic; Activity [6]: Toxic; hemolysis at 1 h, 1e-05 mg/mL [7]: 5%
CN1CCC[C@H]1c1cccnc1.C[C@H](CCC(=O)O)[C@H]1CC[C@H]2[C@@H]3[C@H](O)C[C@@H]4C[C@H](O)CC[C@]4(C)[C@H]3C[C@H](O)[C@]12C			Non-toxic		
CN1CCC[C@H]1c1cccnc1.C[C@H](CCC(=O)O)[C@H]1CC[C@H]2[C@@H]3CC[C@@H]4C[C@H](O)CC[C@]4(C)[C@H]3C[C@H](O)[C@]12C		Dose-dependent effect	Non-toxic	Toxic	hemolysis at 1 h, 1e-05 mg/mL [7]: 12.4%; hemolysis at 1 h, 0.63 mg/mL [9]: 5%
CN1C(=[Se])CC[C@H]1c1cccnc1.C[C@H](CCC(=O)O)[C@H]1CC[C@H]2[C@@H]3CC[C@@H]4C[C@H](O)CC[C@]4(C)[C@H]3CC[C@]12C	180	Dose-dependent effect			hemolysis at 1 h, 0.006 mg/mL [10]: 5%; Activity [6]: Toxic
CN1CCC[C@H]1c1cccnc1.C[C@H](CCC(=O)O)[C@H]1CC[C@H]2[C@@H]3CC[C@@H]4C[C@H](O)CC[C@]4(C)[C@H]3CC[C@]12C	200	Dose-dependent effect		Toxic	hemolysis at 1 h, 0.007 mg/mL [11]: 5%; hemolysis at 1 h, 1e-05 mg/mL [7]: 16.7%
CN1C(=[Se])CC[C@H]1c1cccnc1			Non-toxic		Activity [12]: Non-toxic
CN1C(=S)CC[C@H]1c1cccnc1			Non-toxic		Activity [12]: Non-toxic
C[C@H](CCC(=O)O)[C@H]1CC[C@H]2[C@@H]3[C@H](O)C[C@@H]4C[C@H](O)CC[C@]4(C)[C@H]3C[C@H](O)[C@]12C [CHOLIC ACID]			Non-toxic		hemolysis at 1 h, 0.75 mg/mL [13]: 5%
C[C@H](CCC(=O)O)[C@H]1CC[C@H]2[C@@H]3CC[C@@H]4C[C@H](O)CC[C@]4(C)[C@H]3CC[C@]12C [LITHOCHOLIC ACID]	9 (≈ 23.9 µM)			Toxic	hemolysis at 1 h, 0.0001 mg/mL [14]: 5%
CN1CCC[C@H]1c1cccnc1 [NICOTINE]			Non-toxic		Activity [12]: Non-toxic
C[C@H](CCC(=O)O)[C@H]1CC[C@H]2[C@@H]3CC[C@@H]4C[C@H](O)CC[C@]4(C)[C@H]3C[C@H](O)[C@]12C [SODIUM DEOXYCHOLATE]				Toxic	hemolysis at 1 h, 0.17 mg/mL [15]: 5%
